# Data from PubChem BioAssay (NCI).
#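 Tested at 5 concentrations; 48 h exposure; 96-well plates; endpoints linearly interpolated, else capped at highest concentration. GI50: concentration for 50% inhibition of growth. TGI: concentration producing complete growth inhibition.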
# Experiments:
# Test in all cases: inhibition of tumour cell growth, NCI panel, 48 h
# NCI-H23 lung = system: NCI-H23 lung
# NCI-H460 lung = system: NCI-H460 lung
# NCI-H522 lung = system: NCI-H522 lung
# NCI/ADR-RES ovarian = system: NCI/ADR-RES ovarian
# OVCAR-3 ovarian = system: OVCAR-3 ovarian
# OVCAR-4 ovarian = system: OVCAR-4 ovarian
# OVCAR-5 ovarian = system: OVCAR-5 ovarian
# OVCAR-8 ovarian = system: OVCAR-8 ovarian
# PC-3 prostate = system: PC-3 prostate
# RPMI-8226 leukemia = system: RPMI-8226 leukemia
# RXF 393 renal = system: RXF 393 renal
# SF-268 CNS = system: SF-268 CNS
# SF-295 CNS = system: SF-295 CNS
# SF-539 CNS = system: SF-539 CNS
# SK-MEL-2 melanoma = system: SK-MEL-2 melanoma
# SK-MEL-28 melanoma = system: SK-MEL-28 melanoma
# SK-MEL-5 melanoma = system: SK-MEL-5 melanoma
# SK-OV-3 ovarian = system: SK-OV-3 ovarian
# SN12C renal = system: SN12C renal
# SNB-19 CNS = system: SNB-19 CNS
# SNB-75 CNS = system: SNB-75 CNS
# SR leukemia = system: SR leukemia
# SW-620 colon = system: SW-620 colon
# T-47D breast = system: T-47D breast
# TK-10 renal = system: TK-10 renal
# U251 CNS = system: U251 CNS
# UACC-257 melanoma = system: UACC-257 melanoma
# UACC-62 melanoma = system: UACC-62 melanoma
# UO-31 renal = system: UO-31 renal
compound,measurement,setting,value
COc1cc(/C=C/C(=O)c2cccc(-n3cc(-c4ccc(Cl)cc4)[nH]c3=O)c2)cc(OC)c1OC,GI50,NCI-H23 lung,3.56 µM
same,TGI,NCI-H23 lung,16.9 µM
same,GI50,NCI-H460 lung,3.74 µM
same,TGI,NCI-H460 lung,11.8 µM
same,GI50,NCI-H522 lung,4.1 µM
same,TGI,NCI-H522 lung,21.9 µM
same,GI50,NCI/ADR-RES ovarian,2.36 µM
same,TGI,NCI/ADR-RES ovarian,7.3 µM
same,GI50,OVCAR-3 ovarian,2.48 µM
same,TGI,OVCAR-3 ovarian,6.02 µM
same,GI50,OVCAR-4 ovarian,11.4 µM
same,TGI,OVCAR-4 ovarian,38 µM
same,GI50,OVCAR-5 ovarian,3.11 µM
same,TGI,OVCAR-5 ovarian,10.2 µM
same,GI50,OVCAR-8 ovarian,3.85 µM
same,TGI,OVCAR-8 ovarian,> 100 µM
same,GI50,PC-3 prostate,16.5 µM
same,TGI,PC-3 prostate,> 100 µM
same,GI50,RPMI-8226 leukemia,3.92 µM
same,TGI,RPMI-8226 leukemia,> 100 µM
same,GI50,RXF 393 renal,3.22 µM
same,TGI,RXF 393 renal,7.7 µM
same,GI50,SF-268 CNS,5.07 µM
same,TGI,SF-268 CNS,39.2 µM
same,GI50,SF-295 CNS,24.3 µM
same,TGI,SF-295 CNS,> 100 µM
same,GI50,SF-539 CNS,3.49 µM
same,TGI,SF-539 CNS,14.3 µM
same,GI50,SK-MEL-2 melanoma,3.44 µM
same,TGI,SK-MEL-2 melanoma,12.5 µM
same,GI50,SK-MEL-28 melanoma,10.9 µM
same,TGI,SK-MEL-28 melanoma,25.6 µM
same,GI50,SK-MEL-5 melanoma,8.7 µM
same,TGI,SK-MEL-5 melanoma,23.7 µM
same,GI50,SK-OV-3 ovarian,31.4 µM
same,TGI,SK-OV-3 ovarian,> 100 µM
same,GI50,SN12C renal,5.14 µM
same,TGI,SN12C renal,28.5 µM
same,GI50,SNB-19 CNS,16.1 µM
same,TGI,SNB-19 CNS,37 µM
same,GI50,SNB-75 CNS,20.5 µM
same,TGI,SNB-75 CNS,> 100 µM
same,GI50,SR leukemia,3.03 µM
same,TGI,SR leukemia,> 100 µM
same,GI50,SW-620 colon,1.75 µM
same,TGI,SW-620 colon,3.17 µM
same,GI50,T-47D breast,6.65 µM
same,TGI,T-47D breast,51.5 µM
same,GI50,TK-10 renal,6.46 µM
same,TGI,TK-10 renal,71.5 µM
same,GI50,U251 CNS,2.12 µM
same,TGI,U251 CNS,4.62 µM
same,GI50,UACC-257 melanoma,17.4 µM
same,TGI,UACC-257 melanoma,90.9 µM
same,GI50,UACC-62 melanoma,8.88 µM
same,TGI,UACC-62 melanoma,21.4 µM
same,GI50,UO-31 renal,7.03 µM
same,TGI,UO-31 renal,21.3 µM
